{"source": "patent US20250360221A1", "about": "(priority 2025, published 2025)", "origin": "cited, not measured here", "key": {"[1]": {"details": "across the human BBB; transporter type named"}, "[2]": {"details": "humans"}, "[3]": {"details": "animals, prior art"}, "μ-opioid receptor": {"molecular_target": "μ-opioid receptor (Homo sapiens, UniProt P35372)", "sequence (P35372 whole entry, species assumed)": "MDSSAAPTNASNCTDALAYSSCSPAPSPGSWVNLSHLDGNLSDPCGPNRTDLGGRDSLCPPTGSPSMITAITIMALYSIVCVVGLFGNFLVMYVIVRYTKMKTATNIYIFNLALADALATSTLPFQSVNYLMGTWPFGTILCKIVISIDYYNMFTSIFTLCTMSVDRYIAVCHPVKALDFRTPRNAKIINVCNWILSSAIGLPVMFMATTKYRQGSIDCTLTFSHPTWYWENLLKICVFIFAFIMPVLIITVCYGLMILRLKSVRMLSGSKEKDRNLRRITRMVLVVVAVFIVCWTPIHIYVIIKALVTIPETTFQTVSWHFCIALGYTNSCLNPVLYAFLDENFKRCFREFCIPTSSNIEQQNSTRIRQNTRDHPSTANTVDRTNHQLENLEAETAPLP"}, "[4]": {"system": "patients with severe cancer pain"}, "humans": {"system": "humans", "details": "epidural injections"}, "[5]": {"system": "patients suffering from cancer pain", "details": "continuous intrathecal infusion for two weeks"}, "proteolytic enzymes": {"system": "proteolytic enzymes", "details": "compared to other opioid peptides"}, "[6]": {"details": "intrathecal, 3 mg, patients with severe cancer pain"}}, "note": "Entries after “also recorded” stand apart in the source; their conditions may differ. Structures can show the parent of a compound that is named as a salt. Where two headings read alike, the source gives them in different places."}
{"molecule": "CC/C=C\\C/C=C\\C/C=C\\C/C=C\\C/C=C\\C/C=C\\CCC(=O)O", "note": "[DHA, docosahexaenoic acid]", "values": [{"measurement": "Active Transport", "setting": "[1]", "result": "+ protein"}]}
{"molecule": "CCOC(=O)CC(O)(CC(=O)OCC)C(=O)OCC", "note": "[triethyl citrate]", "values": [{"measurement": "crossing of the BBB", "setting": "[2]; prior art", "result": "probably crosses the BBB"}]}
{"molecule": "O=C1O[C@H]([C@@H](O)CO)C(=O)C1=O", "note": "[Dehydroascorbic acid]", "values": [{"measurement": "Active Transport", "setting": "[1]", "result": "+ GLUT"}, {"measurement": "crossing of the BBB", "setting": "[3]", "result": "crosses via GLUT1 transporter the BBB"}]}
{"molecule": "CC(C)CCC[C@@H](C)[C@H]1CC[C@H]2[C@@H]3CC=C4C[C@@H](O)CC[C@]4(C)[C@H]3CC[C@]12C", "note": "[Cholesterol]", "values": [{"measurement": "Active Transport", "setting": "[1]", "result": "+ lipid"}]}
{"molecule": "α endorphin", "values": [{"measurement": "analgesic activity", "setting": "μ-opioid receptor", "result": "not analgesic"}]}
{"molecule": "Cc1cc(OCC(=O)O)cc(C)c1Cc1ccc(O)c(C(C)C)c1", "note": "[sobetirome]", "values": [{"measurement": "crossing of the BBB", "setting": "[2]; prior art", "result": "crosses the BBB"}]}
{"molecule": "γ endorphin: γ endorphin, stated not analgesic (YGGFMTSEKSQTPLVTL; Beta-endorphin gamma-endorphin; UniProt P01189 237-253, looked up, fragment)", "values": [{"measurement": "analgesic activity", "setting": "μ-opioid receptor", "result": "not analgesic"}]}
{"molecule": "CC(=O)Oc1ccc2c3c1O[C@H]1[C@@H](OC(C)=O)C=C[C@H]4[C@@H](C2)N(C)CC[C@@]341", "note": "[Diacetylmorphine]", "values": [{"measurement": "crossing of the BBB", "setting": "[2]; prior art", "result": "crosses the BBB"}]}
{"molecule": "O=C1NC(c2ccccc2)(c2ccccc2)C(=O)N1COP(=O)(O)O", "note": "[fosphenytoin]", "values": [{"measurement": "crossing of the BBB", "setting": "[2]; prior art", "result": "crosses the BBB"}]}
{"molecule": "β-endorphin", "values": [{"measurement": "respiratory depression", "setting": "[4]; intrathecal or epidural administration to humans", "result": "no evidence of respiratory depression"}, {"measurement": "adverse effects", "setting": "[4]; [6]", "result": "without major adverse effects"}, {"measurement": "duration of analgesia", "setting": "[4]; [6]", "result": "approximately 33.4 hours"}, {"measurement": "duration of analgesia", "setting": "humans", "result": 19.5, "unit": "h"}, {"measurement": "side effects", "setting": "humans", "result": "without major side effects"}, {"measurement": "analgesia", "setting": "[5]", "result": "profound analgesia"}, {"measurement": "tolerance or respiratory depression", "setting": "[5]", "result": "did not demonstrate tolerance; also recorded: no evidence of tolerance or respiratory depression"}, {"measurement": "resistance to degradation by proteolytic enzymes / peptidases", "setting": "proteolytic enzymes", "result": "resistant to degradation by proteolytic enzymes; also recorded: quite stable and resistant to many peptidases"}, {"measurement": "respiratory depression", "setting": "animals; intracerebroventricular administration", "result": "reports of respiratory depression"}, {"measurement": "tolerance", "setting": "animals; intracerebroventricular injection", "result": "tolerance develops"}, {"measurement": "crossing of the BBB", "setting": "[2]; administered intravenously", "result": "does not cross the BBB"}]}
{"molecule": "β-endorphin (1-27) (YGGFMTSEKSQTPLVTLFKNAIIKNAY; Beta-endorphin; UniProt P01189 237-263, looked up, fragment) [shorter fragment of β-endorphin]", "values": [{"measurement": "potency compared to β-endorphin (1-31)", "setting": "μ-opioid receptor", "result": "less potent"}]}
{"molecule": "CC/C=C\\C/C=C\\C/C=C\\CCCCCCCC(=O)O", "note": "[Linolenic acid]", "values": [{"measurement": "Active Transport", "setting": "[1]", "result": "+ lipid"}]}
